The term IC50 denotes the concentration at which inhibition is half-maximal. A higher IC50 goes with weaker potency in that assay.

This test concerns the target T1, Activin receptor type-1 (Homo sapiens, UniProt Q04771).
T1 sequence (Q04771 whole entry): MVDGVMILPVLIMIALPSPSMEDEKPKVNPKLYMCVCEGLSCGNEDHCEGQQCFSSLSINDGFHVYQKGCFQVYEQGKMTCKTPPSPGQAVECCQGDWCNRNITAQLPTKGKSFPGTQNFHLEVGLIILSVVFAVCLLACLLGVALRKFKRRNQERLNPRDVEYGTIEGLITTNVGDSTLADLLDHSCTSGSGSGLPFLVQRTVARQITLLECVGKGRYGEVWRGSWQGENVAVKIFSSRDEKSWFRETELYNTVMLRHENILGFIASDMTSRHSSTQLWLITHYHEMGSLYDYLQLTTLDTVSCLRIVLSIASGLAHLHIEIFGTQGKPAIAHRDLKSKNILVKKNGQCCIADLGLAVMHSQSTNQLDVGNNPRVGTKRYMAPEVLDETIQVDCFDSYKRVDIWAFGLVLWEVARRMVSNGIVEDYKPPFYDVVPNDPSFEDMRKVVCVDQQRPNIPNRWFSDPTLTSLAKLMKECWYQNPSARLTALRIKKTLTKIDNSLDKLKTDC
As to the kind of experiment: The enzymatic assays were conducted in white 384-well polystyrene plates in a final volume of 8 μL. The inhibitors were serially diluted in DMSO and added to the plate wells prior to addition of the other reaction components. […] The final concentration of DMSO in the assay was 1% and the enzyme concentration was 0.5 nM for ALK2. […] The reaction was incubated at 25° C. for 1 hr and read on a PHERAstar FS plate reader (BMG Labtech). IC50 determination was performed by fitting percent control activity versus the log of the inhibitor concentration using the IDBS XLFit and GraphPad Prism 5.0 software.

Molecules are shown by their SMILES. Some results are limits rather than exact numbers.

In the case of `Cc1nn2c(-c3ccnc4cc(-c5ccncc5)ccc34)cnc2cc1-c1cnn(CC2CCNCC2)c1`, the 50% inhibitory concentration (IC50) is under 1 nM.

The values are drawn from ChEMBL document CHEMBL5729353, “Imidazopyridazine and imidazopyridine compounds and uses thereof” (2022).
